The test system of this experiment is Min6 cell. Kind of experiment: Insulin secretion response of beta cell line to formula I compounds (insulin ELISA). Format: cell-based. To be noted: rank according to % increase versus control at most effective dose. Summed up: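 After compound or vehicle exposure, Min6 cells were held 2 h in glucose-free medium and preincubated 30 min at 37° C in glucose-free KRBH (pH 7.4, 0.1% BSA). They were then incubated 30 min at 37° C in KRBH with varying glucose. Secreted insulin and acid-ethanol-extracted intracellular insulin were measured by ELISA.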

As for `Cc1cc(C(=O)N2CCC(=O)N(C3CC3)Cc3cc(Cl)ccc32)on1` [Compound 139, 8-chloro-5-cyclopropyl-1-(3-methylisoxazole-5-carbonyl)-2,3,5,6-tetrahydrobenzo[b][1,5]diazocin-4(1H)-one], the “Insulin secretion (Min6 cell) Range 1 to 5” value (from here on “Insulin secretion”) is given as 1 (1: 90-110% of control). Under `COc1ccc2c(c1OC(F)F)CN(C1CC1)C(=O)CCN2C(=O)c1cc(C)no1` [Compound 140, 5-cyclopropyl-7-(difluoromethoxy)-8-methoxy-1-(3-methylisoxazole-5-carbonyl)-2,3,5,6-tetrahydrobenzo[b][1,5]diazocin-4(1H)-one] stands 3 (3: 120-140% of control).

`COc1ccc2c(c1)CN(C1CC1)C(=O)CCN2C(=O)c1cc(C)no1` [Compound 141, 5-cyclopropyl-8-methoxy-1-(3-methylisoxazole-5-carbonyl)-2,3,5,6-tetrahydrobenzo[b][1,5]diazocin-4(1H)-one]: the “Insulin secretion” value is reported as 4 (4: 140-170% of control). Under `Cc1cc(C(=O)N2CCC(=O)N(C3CC3)Cc3cc(OC(F)F)ccc32)on1` [Compound 142, 5-cyclopropyl-8-(difluoromethoxy)-1-(3-methylisoxazole-5-carbonyl)-2,3,5,6-tetrahydrobenzo[b][1,5]diazocin-4(1H)-one] stands 4 (4: 140-170% of control); under `O=C(CN1CCC(=O)N(C2CC2)Cc2cc(Cl)ccc21)c1ccc(OC(F)F)cc1` [Compound 143, 8-chloro-5-cyclopropyl-1-(2-(4-(difluoromethoxy)phenyl)-2-oxoethyl)-2,3,5,6-tetrahydrobenzo[b][1,5]diazocin-4(1H)-one], 2 (2: 110-120% of control).

For the molecule `O=C(CN1CCC(=O)N(C2CC2)Cc2c1ccc1c2OCCO1)c1ccc(OC(F)F)cc1` [Compound 144, 11-cyclopropyl-7-(2-(4-(difluoromethoxy)phenyl)-2-oxoethyl)-2,3,8,9,11,12-hexahydro-[1,4]dioxino[2′,3′:3,4]benzo[1,2-b][1,5]diazocin-10(7H)-one], the “Insulin secretion” value was 1 (1: 90-110% of control).

Consider `OC(CN1CCCN(C2CC2)Cc2cc(F)ccc21)c1ccc(Cl)cc1` (stereo not shown) [Compound 145, 1-(4-chlorophenyl)-2-(5-cyclopropyl-8-fluoro-3,4,5,6-tetrahydrobenzo[b][1,5]diazocin-1(2H)-yl)ethanol], for which the “Insulin secretion” value is recorded as 3 (3: 120-140% of control).

As to `C[C@H](O)CN1CCC(=O)N(C2CC2)Cc2c1ccc1c2OCCO1` [Compound 146, (S)-11-cyclopropyl-7-(2-hydroxypropyl)-2,3,8,9,11,12-hexahydro-[1,4]dioxino[2′,3′:3,4]benzo[1,2-b][1,5]diazocin-10(7H)-one], the “Insulin secretion” value is recorded as 5 (5: >170% of control). Under `C[C@H](O)CN1CCC(=O)N(C2CC2)Cc2cc(Cl)ccc21` [Compound 147, (S)-8-chloro-5-cyclopropyl-1-(2-hydroxypropyl)-2,3,5,6-tetrahydrobenzo[b][1,5]diazocin-4(1H)-one] stands 2 (2: 110-120% of control); under `O=C1CCN(CC(O)c2ccc(OC(F)F)cc2)c2ccc(Cl)cc2CN1C1CC1` (stereo not shown) [Compound 148, 8-chloro-5-cyclopropyl-1-(2-(4-(difluoromethoxy)phenyl)-2-hydroxyethyl)-2,3,5,6-tetrahydrobenzo[b][1,5]diazocin-4(1H)-one], 1 (1: 90-110% of control). As for `O=C1CCN(CC(O)c2ccc(OC(F)F)cc2)c2ccc3c(c2CN1C1CC1)OCCO3` (stereo not shown) [Compound 149, 11-cyclopropyl-7-(2-(4-(difluoromethoxy)phenyl)-2-hydroxyethyl)-2,3,8,9,11,12-hexahydro-[1,4]dioxino[2′,3′:3,4]benzo[1,2-b][1,5]diazocin-10(7H)-one], the “Insulin secretion” value is reported as 3 (3: 120-140% of control). In the case of `O=C1CCN(C(=O)Cc2ccc(F)cc2)c2ncccc2CN1CC1CC1` [Compound 150, 5-(cyclopropylmethyl)-1-(2-(4-fluorophenyl)acetyl)-2,3,5,6-tetrahydropyrido[2,3-b][1,5]diazocin-4(1H)-one], the “Insulin secretion” value is 4 (4: 140-170% of control). Then `Cc1cc(C(=O)N2CCC(=O)N(CC3CC3)Cc3cccnc32)on1` [Compound 151, 5-(cyclopropylmethyl)-1-(3-methylisoxazole-5-carbonyl)-2,3,5,6-tetrahydropyrido[2,3-b][1,5]diazocin-4(1H)-one], with 1 (1: 90-110% of control). Then `O=C1CCN(C(=O)c2cnccn2)c2ncccc2CN1CC1CC1` [Compound 152, 5-(cyclopropylmethyl)-1-(pyrazine-2-carbonyl)-2,3,5,6-tetrahydropyrido[2,3-b][1,5]diazocin-4(1H)-one], with 3 (3: 120-140% of control); and `O=C1CCN(C(=O)c2cccnc2)c2ncccc2CN1CC1CC1` [Compound 153, 5-(cyclopropylmethyl)-1-nicotinoyl-2,3,5,6-tetrahydropyrido[2,3-b][1,5]diazocin-4(1H)-one], with 3 (3: 120-140% of control). Then `CC(C)(C)C(O)CN1CCC(=O)N(C2CCCC2)Cc2cc(F)ccc21` (stereo not shown) [Compound 154, 5-cyclopentyl-8-fluoro-1-(2-hydroxy-3,3-dimethylbutyl)-2,3,5,6-tetrahydrobenzo[b][1,5]diazocin-4(1H)-one], with 1 (1: 90-110% of control); and `COc1ccc2c(c1)CN(CC=C(C)C)C(=O)CCN2C(=O)c1ccno1` [Compound 156, 1-(isoxazole-5-carbonyl)-8-methoxy-5-(3-methylbut-2-enyl)-2,3,5,6-tetrahydrobenzo[b][1,5]diazocin-4(1H)-one], with 1 (1: 90-110% of control). Turning to `CCC#CCN1Cc2ccccc2N(C(=O)c2ccno2)CCC1=O` [Compound 158, 1-(isoxazole-5-carbonyl)-5-(pent-2-ynyl)-2,3,5,6-tetrahydrobenzo[b][1,5]diazocin-4(1H)-one], the “Insulin secretion” value is given as 1 (1: 90-110% of control). Then `O=C1CCN(C(=O)c2ccno2)c2cc3c(cc2CN1CC1CC1)OCO3` [Compound 159, 9-(cyclopropylmethyl)-5-(isoxazol-5-ylcarbonyl)-6,7,9,10-tetrahydro[1,3]dioxolo[4,5-i][1,5]benzodiazocin-8(5H)-one], with 1 (1: 90-110% of control); and `COc1ccc2c(c1)CN(C1CC1)C(=O)CCN2C(=O)C1CCC1` [Compound 160, 1-(cyclobutanecarbonyl)-5-cyclopropyl-8-methoxy-2,3,5,6-tetrahydrobenzo[b][1,5]diazocin-4(1H)-one], with 1 (1: 90-110% of control). Under `O=C1CCNc2cc3c(cc2CN1C1CCCC1)OCO3` [Compound 161, 9-cyclopentyl-6,7,9,10-tetrahydro[1,3]dioxolo[4,5-i][1,5]benzodiazocin-8(5H)-one] stands 1 (1: 90-110% of control); under `CC(C)(C)OCC(O)CN1CCC(=O)N(C2CC2)Cc2cc3c(cc21)OCO3` (stereo not shown) [Compound 162, 5-(3-tert-butoxy-2-hydroxypropyl)-9-cyclopropyl-6,7,9,10-tetrahydro[1,3]dioxolo[4,5-i][1,5]benzodiazocin-8(5H)-one], 1 (1: 90-110% of control); under `CCN1Cc2ccccc2N(CC(C)O)CCC1=O` (stereo not shown) [Compound 163, 5-ethyl-1-(2-hydroxypropyl)-2,3,5,6-tetrahydrobenzo[b][1,5]diazocin-4(1H)-one], 1 (1: 90-110% of control).

Consider `CCN1Cc2cc(F)ccc2N(CC(O)C(C)(C)C)CCC1=O` (stereo not shown) [Compound 166, 5-ethyl-8-fluoro-1-(2-hydroxy-3,3-dimethylbutyl)-2,3,5,6-tetrahydrobenzo[b][1,5]diazocin-4(1H)-one], for which the “Insulin secretion” value is on record as 1 (1: 90-110% of control). Then `C=CCOc1c(OC)ccc2c1CN(CC)C(=O)CCN2CC(O)COc1ccccc1` (stereo not shown) [Compound 167, 7-(allyloxy)-5-ethyl-1-(2-hydroxy-3-phenoxypropyl)-8-methoxy-2,3,5,6-tetrahydrobenzo[b][1,5]diazocin-4(1H)-one], with 2 (2: 110-120% of control); and `O=C1CCN(C[C@@H](O)COCc2ccccc2)c2ccc(F)cc2CN1C1CCCC1` [Compound 168, (R)-1-(3-(benzyloxy)-2-hydroxypropyl)-5-cyclopentyl-8-fluoro-2,3,5,6-tetrahydrobenzo[b][1,5]diazocin-4(1H)-one], with 4 (4: 140-170% of control). Then `C=CCOc1c(OC)ccc2c1CN(CC1CC1)C(=O)CCN2C(=O)c1ccno1` [Compound 169, 7-(allyloxy)-5-(cyclopropylmethyl)-1-(isoxazole-5-carbonyl)-8-methoxy-2,3,5,6-tetrahydrobenzo[b][1,5]diazocin-4(1H)-one], with 4 (4: 140-170% of control); and “ethyl 2-(4-oxo-1,2,3,4-tetrahydrobenzo[b][1,5]diazocin-5(6H)-yl)acetate [Compound 155]”, with 1 (1: 90-110% of control).

The record behind these values is patent US8765728B2, “[1,5]-diazocin derivatives” (MelliTech, priority 2009, dated 2014).
